What was measured:
RSV = assay: microbe, parasite or virus in culture; assay type: cell-based, Human Respiratory Syncytial Virus (RSV) strain A2; settings: human respiratory syncytial virus, Vero 76, read-out: EC50 RSV
HIV-1IIIB = assay: microbe, parasite or virus in culture; assay type: cell-based, Human Immunodeficiency Virus type-1 (HIV-1); settings: Human immunodeficiency virus 1, MT4, read-out: EC50 HIV-1IIIB
BVDV = assay: microbe, parasite or virus in culture; assay type: cell-based; settings: Bovine viral diarrhea virus isolates and strains, MDBK, read-out: EC50 BVDV
YFV = assay: microbe, parasite or virus in culture; assay type: cell-based; settings: Yellow fever virus, BHK, read-out: EC50 YFV
Reo-1 = assay: microbe, parasite or virus in culture; assay type: cell-based, Reovirus type-1 (Reo-1); settings: Reovirus sp., BHK, read-out: EC50 Reo-1
CV-B5 = assay: microbe, parasite or virus in culture; assay type: cell-based, Human Enterovirus B [coxsackie type B5 (CV-B5)]; settings: Enterovirus B, CVB5, Vero 76, read-out: EC50 CV-B5
Sb-1, VSV, VV, HSV-1 = assay: organism not typed; assay type: cell-based; settings: Vero 76, read-out: EC50 Sb-1, VSV, VV, HSV-1
in vitro = settings: cattle (Bos taurus)
[1] = Cytotoxicity, MTT method, BHK cells; settings: Syrian hamster (Mesocricetus auratus)
[2] = Cytotoxicity, MTT method, MT-4 cells; settings: human
[3] = Cytotoxicity, MTT method, Vero-76 cells; settings: African green monkey (Cercopithecus aethiops)

| Compound | EC50 (RSV) | EC50 (HIV-1IIIB) | EC50 (BVDV) | EC50 (YFV) | EC50 (Reo-1) | EC50 (CV-B5) | EC50 (Sb-1, VSV, VV, HSV-1) | CC50 (in vitro) | CC50 [1] | CC50 [2] | CC50 at 5 days [3] | melting point | CC50 ([2]; MT-4 cells (mock-infected)) | CC50 ([3]; Vero-76 cells (mock-infected)) |
| --- | --- | --- | --- | --- | --- | --- | --- | --- | --- | --- | --- | --- | --- | --- |
| Nc1ccc(-n2nnc3cc(Cl)c(Cl)cc32)cc1 [1a, 1-(4-aminophenyl)-5,6-dichlorobenzotriazole] | 20 µM | > 100 µM | 75 µM | > 100 µM | > 100 µM | 85 µM | > 100 µM | > 100 µM | > 100 µM | > 100 µM | > 100 µM |  |  |  |
| Nc1ccc(-n2nc3cc(Cl)c(Cl)cc3n2)cc1 [1b, 2-(4-aminophenyl)-5,6-dichlorobenzotriazole] | 6 µM | > 52 µM | 20 µM | > 100 µM | > 100 µM | > 100 µM | > 100 µM | ≥ 100 µM | > 100 µM | 52 µM | > 100 µM |  |  |  |
| C[C@@]1(O)[C@H](O)[C@@H](CO)O[C@H]1n1cnc2c(=O)[nH]c(N)nc21 [2MG, 2’-C-methyl-guanosine, reference compound] |  |  | 1.1 ± 0.1 µM | 1.9 ± 0.1 µM | 0.7 ± 0.2 µM |  |  | > 100 µM | > 100 µM |  |  |  |  |  |
| CC(=O)Nc1ccc(-n2nnc3cc(Cl)c(Cl)cc32)cc1 [5a, N-[4-(5,6-dichloro-1H-benzo[d][1,2,3]triazol-1-yl)phenyl]acetamide] | 3 µM | > 35 µM | > 43 µM | > 53 µM | > 53 µM | 17 µM | > 30 µM | 43 µM | 53 µM | 35 µM | 30 µM | 209 to 211 °C |  |  |
| CCC(=O)Nc1ccc(-n2nnc3cc(Cl)c(Cl)cc32)cc1 [5b, N-[4-(5,6-dichloro-1H-benzo[d][1,2,3]triazol-1-yl)phenyl]propionamide] | 4 µM | > 28 µM | > 100 µM | > 54 µM | > 54 µM | > 30 µM | > 30 µM | > 100 µM | 54 µM | 28 µM | 30 µM | 175 to 177 °C |  |  |
| CCCC(=O)Nc1ccc(-n2nnc3cc(Cl)c(Cl)cc32)cc1 [5c, N-[4-(5,6-dichloro-1H-benzo[d][1,2,3]triazol-1-yl)phenyl]butanamide] | 4 µM | > 60 µM | > 100 µM | > 100 µM | > 100 µM | 9 µM | > 100 µM | > 100 µM | > 100 µM | 60 µM | 10 µM | 202 to 204 °C |  |  |
| CCCC(=O)N(C(=O)CCC)c1ccc(-n2nnc3cc(Cl)c(Cl)cc32)cc1 [5d, N-butyryl-N-[4-(5,6-dichloro-1H-benzo[d][1,2,3]triazol-1-yl)phenyl] butyramide] | > 30 µM | > 35 µM | > 14 µM | > 16 µM | > 16 µM | > 20 µM | > 20 µM | 14 µM | 16 µM | 35 µM | 20 µM | 202 to 204 °C |  |  |
| CC(=O)Nc1ccc(-n2nc3cc(Cl)c(Cl)cc3n2)cc1 [6a, N-[4-(5,6-dichloro-2H-benzo[d][1,2,3]triazol-2-yl)phenyl]acetamide] | > 100 µM | > 100 µM | > 100 µM | > 100 µM | > 100 µM | > 100 µM | > 100 µM | > 100 µM | > 100 µM | > 100 µM | > 100 µM | > 290 °C |  |  |
| CCC(=O)Nc1ccc(-n2nc3cc(Cl)c(Cl)cc3n2)cc1 [6b, N-[4-(5,6-dichloro-2H-benzo[d][1,2,3]triazol-2-yl)phenyl]propanamide] | > 100 µM | > 100 µM | > 100 µM | > 100 µM | > 100 µM | > 100 µM | > 100 µM | > 100 µM | > 100 µM | > 100 µM | > 100 µM | 258 to 260 °C |  |  |
| CCCC(=O)Nc1ccc(-n2nc3cc(Cl)c(Cl)cc3n2)cc1 [6c, N-[4-(5,6-dichloro-2H-benzo[d][1,2,3]triazol-2-yl)phenyl]butanamide] | > 100 µM | > 100 µM | > 100 µM | > 100 µM | > 100 µM | > 100 µM | > 100 µM | > 100 µM | > 100 µM | > 100 µM | > 100 µM | 243 to 245 °C |  |  |
| CC(=O)N(C(C)=O)c1ccc(-n2nc3cc(Cl)c(Cl)cc3n2)cc1 [6d, N-acetyl-N-[4-(5,6-dichloro-2H-benzo[d][1,2,3]triazol-2-yl)phenyl]acetamide] | 40 µM | > 33 µM | > 100 µM | > 72 µM | > 100 µM | > 100 µM | > 100 µM | 100 µM | 72 µM | 33 µM | > 100 µM | 224 to 226 °C |  |  |
| CCC(=O)N(C(=O)CC)c1ccc(-n2nc3cc(Cl)c(Cl)cc3n2)cc1 [6e, N-propionyl-N-[4-(5,6-dichloro-2H-benzo[d][1,2,3]triazol-2-yl)phenyl] propionamide] | 6 µM | > 15 µM | > 72 µM | > 26 µM | > 26 µM | 61 µM | > 100 µM | 72 µM | 26 µM | 15 µM | > 100 µM | 238 to 240 °C |  |  |
| CCCC(=O)N(C(=O)CCC)c1ccc(-n2nc3cc(Cl)c(Cl)cc3n2)cc1 [6f, N-butyryl-N-[4-(5,6-dichloro-2H-benzo[d][1,2,3]triazol-2-yl)phenyl] butyramide] | 6 µM | > 24 µM | > 84 µM | > 62 µM | > 26 µM | 33 µM | > 100 µM | 84 µM | 62 µM | 24 µM | > 100 µM | 130 to 133 °C |  |  |
| O=C(Nc1ccc(-n2nnc3cc(Cl)c(Cl)cc32)cc1)c1ccccc1 [7a, N-[4-(5,6-dichloro-1H-benzo[d][1,2,3]triazol-1-yl)phenil]benzamide] | 60 µM | > 100 µM | > 100 µM | > 44 µM | > 44 µM | > 100 µM | > 100 µM | > 100 µM | 44 µM | > 100 µM | > 100 µM | 250 to 252 °C |  |  |
| Cc1ccc(C(=O)Nc2ccc(-n3nnc4cc(Cl)c(Cl)cc43)cc2)cc1 [7b, N-[4-(5,6-dichloro-1H-benzo[d][1,2,3]triazol-1-yl)phenyl]-4-methylbenzamide] | > 100 µM | > 100 µM | > 100 µM | > 100 µM | > 100 µM | > 100 µM | > 100 µM | > 100 µM | > 100 µM | > 100 µM | > 100 µM | 226 to 228 °C |  |  |
| COc1ccc(C(=O)Nc2ccc(-n3nnc4cc(Cl)c(Cl)cc43)cc2)cc1 [7c, N-[4-(5,6-dichloro-1H-benzo[d][1,2,3]triazol-1-yl)phenyl]-4-methoxybenzamide] | 35 µM | > 33 µM | > 100 µM | > 100 µM | > 100 µM | > 100 µM | > 100 µM | > 100 µM | > 100 µM | 33 µM | > 100 µM | 193 to 195 °C |  |  |
| COc1cc(C(=O)Nc2ccc(-n3nnc4cc(Cl)c(Cl)cc43)cc2)cc(OC)c1OC [7d, N-[4-(5,6-dichloro-1H-benzo[d][1,2,3]triazol-1-yl)phenyl]-3,4,5-trimethoxybenzamide] | 5 µM | > 77 µM | > 100 µM | 78 µM | > 100 µM | > 90 µM | > 90 µM | > 100 µM | > 100 µM | 77 µM | 90 µM | 212 to 213 °C |  |  |
| Cc1ccc(NC(=O)Nc2ccc(-n3nc4cc(Cl)c(Cl)cc4n3)cc2)cc1 [10f, 1-[4-(5,6-dichloro-2H-benzo[d][1,2,3]triazol-2-yl)phenyl]-3-(4-methylphenyl)urea] | > 100 µM | > 100 µM | > 100 µM | > 100 µM | > 100 µM | > 100 µM | > 100 µM | > 100 µM | > 100 µM | > 100 µM | > 100 µM |  |  |  |
| O=C1Nc2ccc(Cl)cc2[C@@](C#CC2CC2)(C(F)(F)F)O1 [EFV, Efavirenz, reference compound] |  | 0.002 ± 0.0002 µM |  |  |  |  |  |  |  |  |  |  | 40 µM |  |
| Cc1cc(CCCOc2c(C)cc(-c3noc(C(F)(F)F)n3)cc2C)on1 [PCL, Pleconaril, reference compound] |  |  |  |  |  | 0.005 ± 0.001 µM |  |  |  |  |  |  |  | > 100 µM |

— paper PMC6476926, “Dichloro-Phenyl-Benzotriazoles: A New Selective Class of Human Respiratory Syncytial Virus Entry Inhibitors” (Frontiers in Chemistry, 2019)
